Earlier results on three molecules are cited in patent US11766470B2, “Manufacture, formulation and dosing of apraglutide” (VectivBio AG, priority 2020, dated 2023).

Where two headings read alike, the source gives them in different places.

For data set [1] the following is noted: dosed once daily; cited from earlier work.
The conditions of data set [2]: cited from earlier work.
For data set [3] the following is noted: cited from earlier work. The source holds these as a separate data set.

In the case of `CC[C@H](C)[C@H](NC(=O)[C@H](Cc1ccccc1)NC(=O)[C@H](CC(=O)O)NC(=O)[C@H](CCCNC(=N)N)NC(=O)[C@H](C)NC(=O)[C@H](C)NC(=O)[C@H](CC(C)C)NC(=O)[C@H](CC(N)=O)NC(=O)[C@H](CC(=O)O)NC(=O)[C@H](CC(C)C)NC(=O)[C@@H](NC(=O)[C@@H](NC(=O)[C@H](CC(N)=O)NC(=O)[C@H](CCSC)NC(=O)[C@H](CCC(=O)O)NC(=O)[C@H](CC(=O)O)NC(=O)[C@H](CO)NC(=O)[C@H](Cc1ccccc1)NC(=O)[C@H](CO)NC(=O)CNC(=O)[C@H](CC(=O)O)NC(=O)CNC(=O)[C@@H](N)Cc1c[nH]cn1)[C@@H](C)O)[C@@H](C)CC)C(=O)N[C@@H](CC(N)=O)C(=O)N[C@@H](Cc1c[nH]c2ccccc12)C(=O)N[C@@H](CC(C)C)C(=O)N[C@H](C(=O)N[C@@H](CCC(N)=O)C(=O)N[C@H](C(=O)N[C@@H](CCCCN)C(=O)N[C@H](C(=O)N[C@H](C(=O)N[C@@H](CC(=O)O)C(=O)O)[C@@H](C)O)[C@@H](C)CC)[C@@H](C)O)[C@@H](C)CC` [teduglutide], in data set [1], the “Change from baseline increase in urinary input” value is 139.3%, the “Change in baseline in energy absorption” value is 792 kJ/day and the “Change in baseline in wet weight absorption” value is listed as 743 g/day.

“Glucagon-like peptide 2 [GLP-2, reference compound]”: the “Half-life t½” value in data set [2] was 10 min.

For the molecule glepaglutide, in data set [3] (0.1 mg dose once daily), the “Change from baseline increase in urinary output” value is reported as 111%, the “Change in baseline in energy absorption” value is -377 kJ/day and the “Change in baseline in wet weight absorption” value was -211 g/day. Also, in data set [3] (1.0 mg dose once daily), the “Change from baseline increase in urinary output” value was 140%, the “Change in baseline in energy absorption” value is 435 kJ/day and the “Change in baseline in wet weight absorption” value is recorded as 650 g/day. Besides, in data set [3] (10 mg dose once daily), the “Change from baseline increase in urinary output” value was 132%, the “Change in baseline in energy absorption” value is 588 kJ/day and the “Change in baseline in wet weight absorption” value is 786 g/day.
